Source: patent publication US12215111B2, “Imidazopyridazine IL-17 inhibitor compounds” (Janssen Pharmaceutica NV, priority 2021, dated 2025)

Assays:
[1] = system: IL-17A-induced G-CSF production in human normal keratinocyte (NHK); assay: NHK assay: IL-17A-induced G-CSF production in normal human keratinocytes; format: cell-based; conditions: Homo sapiens, Keratinocyte; IL-17A 5 ng/mL, 24 h at 37° C., G-CSF by HTRF; simple average if tested more than once
Method: IL-17A acts directly on keratinocytes through binding to dimeric receptor IL-17RA/RC and drives the production of a number of inflammatory mediators known to be elevated in psoriasis lesional tissue. IL-17A small molecule inhibitors that block the IL-17A to interact with IL-17R would inhibit the IL-17A signaling in its targeted cells such as keratinocytes. The compound functional activity is evaluated for its impact on IL-17A-induced G-CSF production in human normal keratinocyte (NHK).
Adult normal human keratinocytes are cultured in keratinocyte growth medium (Lonza) in a flask till reaching ˜90% confluence, then cells are transferred to a 384-well plate at density of 3000-4000 cell/well. Recombinant human IL-17A (Gibco PHC9174) is pre-incubated with titrated compound or DMSO for 1 h at rt then added to the cell culture plate. The final concentration of IL-17A is 5 ng/mL and DMSO is 0.2%, in the culture containing 5% FBS. Cells are cultured/treated for 24 h at 37° C. Supernatants are collected and G-CSF production is measured through HTRF technology using Human G-CSF Kit (CisBio). G-CSF concentration was extrapolated from the standard curve and IC50 is determined using GraphPad Prism. Cell viability is also evaluated using CellTiter-Glo kit (Promega) and effect of compound on cell viability is compared to DMSO control.

[2] = target: T1, IL-17A(FLAG-Tagged): IL-17RA(His-Tagged) (Homo sapiens, UniProt Q16552, K93Q); assay: IL-17A(FLAG-tagged):IL-17RA(His-tagged) binding disruption Eu-HTRF assay, Protocol 2; conditions: FLAG tagged IL-17A at 2× final concentration (1 nM); simple average if tested more than once
Source text: (§1) IL-17A(FLAG-Tagged): IL-17RA(His-Tagged) Binding Disruption Eu-HTRF Assay
(§2) An antibody directed against the FLAG tag of IL-17A (SEQ ID NO:1) is labeled with the HTRF donor chromophore (Europium-cryptate). IL-17A is present as a dimer that is “locked into” this quaternary structure due to the formation of loop-spanning […] disulfide bridges. The construct of IL-17RA used in the assay excludes the outer-membrane portion of the receptor and is fused to a C-terminal 10×His tag (SEQ ID NO:2). An antibody directed against the His tag of the IL-17RA chimera is labeled with the HTRF acceptor chromophore (“D2”). The fluorescence-resonance energy transfer (FRET) depends on the vicinity of the donor chromophore to the acceptor, and interruption of the binding between the IL-17A and IL-17RA causes the reduction/loss of FRET. Therefore, this assay allows to evaluate the compound effect on the binding IL-17A and IL-17RA by monitoring the fluorescence intensity of donor vs acceptor. The assay was run using either Protocol 1 or Protocol 2 described below.
(§3) Protocol 2. 40 nl of 2-fold serial diluted compound solution for total 22 dilution points is added into each well of a 1536-well, white, low-volume, non-binding plate (Greiner #782904), then 2 μl of FLAG tagged IL-17A at 2× final concentration (1 nM) in solution of PBS+0.01% Triton-X100 is added to each well. The assay plate is briefly centrifuged then incubated for 1 h at rt. A mixed solution is prepared containing 2×5 nM 10HIS×IL-17RA, 2×2.5 nM Eu-anti-FLAG (CISBIO), 2×5 nM D2-anti-HIS (CISBIO) in PBS+0.01% Triton-X100+200 mM Potassium Fluoride (Sigma 60238) and […] of mix is added to each well of the assay plate. The plate is briefly centrifuged then incubated for 2 h at rt. The HTRF intensities at the wavelength of donor (615 nm) and acceptor (665 nm) are measured using BMG Pherastar. The ratio between intensities at two wavelengths is calculated and plotted against the compound concentration and the data is fitted to a one-site competition model to yield IC50 of the compound.

[3] = target: T1, IL-17A(FLAG-Tagged): IL-17RA(His-Tagged); assay: IL-17A(FLAG-tagged):IL-17RA(His-tagged) binding disruption Eu-HTRF assay, Protocol 1; conditions: FLAG tagged IL-17A at 2× final concentration (2.5 nM); simple average if tested more than once
Source text: as §1, §2
as §3, with “Protocol 1:” for “Protocol 2.”, “40 nL” for “40 nl”, “concentration (2.5” for “concentration (1”, “donor (620” for “donor (615”

T1 sequence (Q16552 with tags, fused parts or gaps K93Q): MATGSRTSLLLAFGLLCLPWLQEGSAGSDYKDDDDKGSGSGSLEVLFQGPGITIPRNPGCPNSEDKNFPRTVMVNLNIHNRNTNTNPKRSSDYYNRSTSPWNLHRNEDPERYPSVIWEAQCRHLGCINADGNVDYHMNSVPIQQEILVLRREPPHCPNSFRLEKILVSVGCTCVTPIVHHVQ

Row | Structure (SMILES) | IC50 [1] | IC50 [2] | IC50 [3]
1 | COC[C@H](c1cnn2cc([C@H](CCC(C)(C)C(F)(F)F)NC(=O)c3nonc3C)nc2c1)N1C[C@@](C)(C(F)(F)F)NC1=O (single isomer, unassigned) [Example 31] | < 4 µM | < 4 µM | –
2 | COCCC(c1cnn2cc([C@@H](NC(=O)c3nonc3C)C3CCC(F)(F)CC3)nc2c1)N1C[C@@H](C(F)(F)F)NC1=O (single isomer, unassigned) [Example 40, N—((S)—(4,4-Difluorocyclohexyl)(7-((R*)-3-methoxy-1-((S)-2-oxo-4-(trifluoromethyl)imidazolidin-1-yl)propyl)imidazo[1,2-b]pyridazin-2-yl)methyl)-4-methyl-1,2,5-oxadiazole-3-carboxamide] | < 4 µM | < 4 µM | –
3 | COCCC(c1cnn2cc([C@@H](NC(=O)c3nonc3OC)C3CCC(F)(F)CC3)nc2c1)N1C[C@@H](C(F)(F)F)NC1=O (single isomer, unassigned) [Example 42, N—((S)—(4,4-Difluorocyclohexyl)(7-((R*)-3-methoxy-1-((S)-2-oxo-4-(trifluoromethyl)imidazolidin-1-yl)propyl)imidazo[1,2-b]pyridazin-2-yl)methyl)-4-methoxy-1,2,5-oxadiazole-3-carboxamide] | < 4 µM | < 4 µM | –
4 | CC(C)n1nccc1C(=O)N[C@H](c1cn2ncc([C@@H](COC3CC3)N3C[C@@H](C(F)(F)F)NC3=O)cc2n1)C1CCC(F)(F)CC1 (single isomer, unassigned) [Example 43] | < 4 µM | < 4 µM | –
5 | [2H]C([2H])([2H])C([2H])([2H])n1nccc1C(=O)N[C@@H](COC(C)(C)C(F)(F)F)c1cn2ncc([C@@H](COC)N3C[C@@H](C(F)(F)F)NC3=O)cc2n1 [Example 12] | < 4 µM | – | < 4 µM
6 | Cc1nonc1C(=O)N[C@H](c1cn2ncc([C@@H](C3CC3)N3C[C@@H](C4CC4)NC3=O)cc2n1)C1CCC(F)(F)CC1 [Example 17, N—[(S)—[7-[(R)-Cyclopropyl-[(4R)-4-cyclopropyl-2-oxo-imidazolidin-1-yl]methyl]imidazo[1,2-b]pyridazin-2-yl]-(4,4-difluorocyclohexyl)methyl]-4-methyl-1,2,5-oxadiazole-3-carboxamide] | < 4 µM | – | < 4 µM
7 | Cc1nonc1C(=O)N[C@H](c1cn2ncc([C@@H](C3CC3)N3C[C@@H](C(C)C)NC3=O)cc2n1)C1CCC(F)(F)CC1 [Example 18, N—[(S)—[7-[(R)-Cyclopropyl-[(4R)-4-isopropyl-2-oxo-imidazolidin-1-yl]methyl]imidazo[1,2-b]pyridazin-2-yl]-(4,4-difluorocyclohexyl)methyl]-4-methyl-1,2,5-oxadiazole-3-carboxamide] | < 4 µM | – | < 4 µM
8 | Cc1nonc1C(=O)N[C@H](c1cn2ncc([C@H](N3C[C@@H](C(F)(F)F)NC3=O)C3(C#N)CCC3)cc2n1)C1CCC(F)(F)CC1 [Example 22, N—((S)-(7-((S)—(1-Cyanocyclobutyl)((S)-2-oxo-4-(trifluoromethyl)imidazolidin-1-yl)methyl)imidazo[1,2-b]pyridazin-2-yl)(4,4-difluorocyclohexyl)methyl)-4-methyl-1,2,5-oxadiazole-3-carboxamide] | < 4 µM | – | < 4 µM
9 | COCC(c1cnn2cc([C@H](COC(C)(C)C(F)(F)F)NC(=O)c3nonc3C)nc2c1)N1C[C@@](C)(C(F)(F)F)NC1=O (some centres unmarked) [Example 23] | < 4 µM | < 4 µM | –
10 | COC[C@H](c1cnn2cc([C@H](COC(C)(C)C(F)(F)F)NC(=O)c3ncnn3C(C)C)nc2c1)N1C[C@@H](C(F)(F)F)NC1=O [Example 36, 1-Isopropyl-N—((R)-1-(7-((S)-2-methoxy-1-((S)-2-oxo-4-(trifluoromethyl)imidazolidin-1-yl)ethyl)imidazo[1,2-b]pyridazin-2-yl)-2-((1,1,1-trifluoro-2-methylpropan-2-yl)oxy)ethyl)-1H-1,2,4-triazole-5-carboxamide] | < 4 µM | – | < 4 µM
